Laboratory results as given in patent US5608084A, “Lactones with antioxidising and hypolipidaemic activity useful in the therapy of the atherosclerosis” (priority 1994, dated 1997).
Read-outs that look alike come from different tables or passages of the source.

Legend:
[1] = system: men and women; details: considerable amounts of Vitamin E; cited from earlier work
[2] = system: LDL; details: in vitro, LDL incubated with antioxidizer; cited from earlier work
[3] = system: HepG2; experiment: Incorporation of 14C-acetate in the lipidic classes in HepG2 cells (hypolipidaemic activity); type: cell-based, human; details: for Incorporation of 14C-acetate: Cholesterol / Incorporation of 14C-acetate: Esters of Cholesterol / Incorporation of 14C-acetate: Fatty acids / Incorporation of 14C-acetate: Phospholipids / Incorporation of 14C-acetate: Triglycerides: per culture plate; for inhibition at 1 µM / inhibition at 10 µM: Homo sapiens, HepG2
Protocol: The hypolipidaemic activity of some lactones of general formula I has been evaluated in vitro by testing their influence on the synthesis of the cell lipids like cholesterol, fatty acids, triglycerides, phospholipids and esters of the cholesterol, described by Barnhard J. W. in Amer. J. Cardiol., 62, 52B-56B, (1988).
The synthesis of the lipids has been studied by incubating cells coming from a human hepatocarcinoma (HepG2-American Type Culture Collection) in presence of ^14 C-acetate (Amersham) and by measuring the incorporation of the radioactive precursor in the main lipidic classes by means of chromatographic separation on silica gel (Merck F254), according to the method described by Skipski V. P. et al. in Biochem. Biophys. Acta, 106, 386-396, (1965) and by means of scintillographic dosage with β-counter Beckman scintillator, according to the method reported by Gherardi E. and Calandra S. in Lipids, 15, 108-112, (1980).
The data reported in tables 4 and 5 refer to the incorporation of ^14 C-acetate in the various lipidic classes, expressed as radioactivity in count per minute (cpm) for culture plate, for some lactones, in comparison with the probucol and the gemfibrozil, used as positive controls and with the solvent ethanol, used as negative control.
The percents in brackets express the lowering of the ^14 C-acetate in the various lipidic classes referred to the control, i.e. to the physiological solution. […] The confluence cells have been exposed to the products tested for 24 hours; at the end of the incubation the monolayer has been solubilized and the optical density of the lysate at λ260 nm has been measured. The value of the absorbance is direct function of the amount of the macromolecules present and therefore indirectly of the number of the cells.

Vitamin E
risk of vascular pathologies [1]: lowering of the risk of vascular pathologies | atherogenic potentialities of the LDL [2]: remarkably lowered

Cc1ccc(C)c(OCCCC(C)(C)C(=O)O)c1 [Gemfibrozil, reference compound]
influence on the synthesis of the triglycerides [3]: remarkable activity | Incorporation of 14C-acetate: Cholesterol ([3]; 1 μM): 20820 cpm | Incorporation of 14C-acetate: Esters of Cholesterol ([3]; 1 μM): 968 cpm | Incorporation of 14C-acetate: Fatty acids ([3]; 1 μM): 299 cpm | Incorporation of 14C-acetate: Phospholipids ([3]; 1 μM): 132598 cpm | Incorporation of 14C-acetate: Triglycerides ([3]; 1 μM): 84593 cpm | Incorporation of 14C-acetate: Cholesterol ([3]; 10 μM): 25306 cpm | Incorporation of 14C-acetate: Esters of Cholesterol ([3]; 10 μM): 1156 cpm | Incorporation of 14C-acetate: Fatty acids ([3]; 10 μM): 376 cpm | Incorporation of 14C-acetate: Phospholipids ([3]; 10 μM): 164252 cpm | Incorporation of 14C-acetate: Triglycerides ([3]; 10 μM): 96533 cpm | inhibition at 1 µM ([3]; 1 μM, read-out: Incorporation of 14C-acetate: Cholesterol, percent referred to physiological solution): 34% | inhibition at 1 µM ([3]; 1 μM, read-out: Incorporation of 14C-acetate: Esters of Cholesterol, percent referred to physiological solution): 76% | inhibition at 1 µM ([3]; 1 μM, read-out: Incorporation of 14C-acetate: Fatty acids, percent referred to physiological solution): 55% | inhibition at 1 µM ([3]; 1 μM, read-out: Incorporation of 14C-acetate: Phospholipids, percent referred to physiological solution): 47% | inhibition at 1 µM ([3]; 1 μM, read-out: Incorporation of 14C-acetate: Triglycerides, percent referred to physiological solution): 22% | inhibition at 10 µM ([3]; 10 μM, read-out: Incorporation of 14C-acetate: Cholesterol, percent referred to physiological solution): 20% | inhibition at 10 µM ([3]; 10 μM, read-out: Incorporation of 14C-acetate: Esters of Cholesterol, percent referred to physiological solution): 71% | inhibition at 10 µM ([3]; 10 μM, read-out: Incorporation of 14C-acetate: Fatty acids, percent referred to physiological solution): 44% | inhibition at 10 µM ([3]; 10 μM, read-out: Incorporation of 14C-acetate: Phospholipids, percent referred to physiological solution): 34% | inhibition at 10 µM ([3]; 10 μM, read-out: Incorporation of 14C-acetate: Triglycerides, percent referred to physiological solution): 11% | activity as regards the synthesis of the esters of the cholesterol ([3]; summary of Table 4): 70-75%
